We go through 68 compounds from PubChem BioAssay AID179 (DTP/NCI, 2004).

Active and inactive are the calls of the source.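 How the source made its calls: active means compounds giving half or more protection of infected cells from virus-caused growth loss, again on retest; inactive means the rest.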

The test system of this test is CEM cells HIV-1 protection, formazan growth assay. Description: NCI AIDS Antiviral Assay. The settings on record: for IC50: measured here: growth of uninfected CEM cells. The gist of the method:
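Five concentrations of each compound were applied to infected and uninfected human CEM cells. Protection from HIV-1 was judged from growth measured with a soluble formazan assay.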

As usually defined, the EC50 is the concentration needed to bring the measured effect to its halfway point. By IC50 is commonly meant the point on the concentration scale where inhibition reaches its midpoint. High values mean weaker potency, low ones greater potency.

With `C1=C(c2ccccc2)N2CCN=C2S1`, the EC50 was above 200 µM and the IC50 amounted to 37.2 µM.

For the compound `O=C(CC(c1ccccc1)c1c(O)c2ccccc2oc1=O)c1ccccc1` (stereo unspecified), the EC50 is above 200 µM and the IC50 stood at 83.2 µM. Take `O=C1c2ccccc2C2CC1c1ccccc12` (stereo unspecified): the EC50 is above 214 µM and the 50% inhibitory concentration (IC50) was above 200 µM. Turning to `CN(C)c1ccc(-c2c(C#N)c(-c3ccccc3)n(NS(=O)(=O)c3ccccc3)c(=O)c2C#N)cc1`, the EC50 is above 200 µM and the concentration for half-maximal inhibition (IC50) was 13.2 µM. As for `CCN(CC)c1c(C(=O)/C=C/c2ccc(Cl)cc2)c(-c2ccccc2)nn(C)c1=O`, the EC50 was above 23.4 µM and the IC50 was 4.9 µM. The like results for `O=c1[nH]c(=S)[nH]c2c1sc(=S)n2-c1ccccc1` were, in that order, above 89.1 µM and above 89.1 µM.

Regarding `COc1ccc(S(=O)(=O)Nc2ccccc2C(=O)O)cc1`, the outcome was inactive. Consider `COc1ccc2c(=O)c(O)c(-c3ccccc3)oc2c1`, for which the EC50 was above 66.1 µM and the IC50 is 12.3 µM.

As for `Cc1ccc(C)c(C[P+](c2ccccc2)(c2ccccc2)c2ccccc2)c1`, the EC50 is above 200 µM and the half-inhibitory concentration (IC50) came out at 0.977 µM. With `COc1cc2c3c(c1)nnn3C(=O)C(C)S2` (stereo unspecified), the outcome was inactive.

`Nc1nc(N)c2cc(Sc3ccc4nc(N)nc(N)c4c3)ccc2n1`: the EC50 was above 0.2 µM and the IC50 turned out to be 0.0708 µM. Turning to `CN1C(=O)C2C=CC1C1CCC2N(C)C1=O` (stereo unspecified), the result was inactive.

As for `CCC(CCCN)Nc1cc(OC)cc2cccnc12` (stereo unspecified), the EC50 is above 200 µM and the half-maximal inhibitory concentration (IC50) stood at 6.31 µM. For the compound `Clc1ccc(Cl)c(N=Nc2cc3c4c(c2)CCN4CCC3)c1`, the EC50 was above 100 µM and the IC50 was above 100 µM. On to `CNC(=O)N(C)C(=O)c1ccccc1C(=O)N(C)C(=O)NC`, for which the EC50 was above 200 µM and the half-maximal inhibitory concentration (IC50) is above 200 µM.

`O=C1CCCCC1C(O)(C(F)(F)F)C(F)(F)Cl` (stereo unspecified): the EC50 is above 200 µM and the IC50 came out at 85.1 µM. Take `Clc1cc2nc[nH]c2cc1Cl`: the EC50 was above 269 µM and the IC50 was determined as 141 µM. For the compound `CCOC(=O)C(NCc1cccc(C(F)(F)F)c1)(NC(=O)c1ccccc1)C(F)(F)F` (stereo unspecified), the EC50 was above 200 µM and the IC50 is 18.6 µM. On to `CC(C)CCCC(C)[C@H]1CC[C@@H]2[C@H]3CC[C@H]4C[C@@H](CCC=C(c5cc(Cl)c(OCc6cccc([N+](=O)[O-])c6)c(C(=O)O)c5)c5cc(Cl)c(OCc6cccc([N+](=O)[O-])c6)c(C(=O)O)c5)CC[C@]4(C)[C@@H]3CC[C@]12C` (stereo partly specified), for which the EC50 is above 200 µM and the IC50 is above 200 µM. With `COc1ccc(-c2ncnc(-c3ccc(OC)c(OC)c3)n2)cc1OC`, the EC50 is above 100 µM and the IC50 is above 100 µM. In the case of `c1ccc(N2CC3CSc4c(ccc5ccccc45)C3=N2)cc1` (stereo unspecified), the EC50 was above 200 µM and the concentration for half-maximal inhibition (IC50) is 162 µM.

With `NNC(=O)CNC(=O)CSc1nnc(COc2ccc(Cl)cc2)n1-c1ccccc1`, the EC50 is above 200 µM and the IC50 amounted to 56.2 µM.

For `CC1OC(=O)C(C(C)C)NC(=O)C(C(C)C)OC(=O)C(C(C)C)NC(=O)C(C)OC(=O)C(C(C)C)NC(=O)C(C(C)C)OC(=O)C(C(C)C)NC(=O)C(C)OC(=O)C(C(C)C)NC(=O)C(C(C)C)OC(=O)C(C(C)C)NC1=O` (stereo unspecified), the EC50 is above 0.02 µM and the IC50 was found to be 0.00102 µM. For `O=c1cc/c(=N/O)c(=O)/c1=N\O` the same measures were 17.4 µM and 151 µM. On to `Cc1cc([N+](=O)[O-])c(C)c2c1[nH]c1ccc(/C(CCC3CCCC3)=N\N)cc12`, for which the EC50 is above 10 µM and the IC50 was above 10 µM.

As for `CC(C)(C)c1cc(C(C)(C)C)c(P=C(Cl)Cl)c(C(C)(C)C)c1` (stereo unspecified), the EC50 is above 100 µM and the IC50 is above 100 µM. With `COC1/C=C/OC2(C)Oc3c(C)c(O)c4c(O)c(cc(OCC(=O)N(Cc5ccccc5)Cc5ccccc5)c4c3C2=O)NC(=O)/C(C)=C/C=C/C(C)C(O)C(C)C(O)C(C)C(OC(C)=O)C1C` (stereo unspecified), the outcome was inactive. In the case of `C[N+](C)(C)CC(=O)N/N=C(/C(=O)Nc1ccc(Br)cc1)C1C(=O)NC(=O)NC1=O`, the EC50 was above 200 µM and the half-maximal inhibitory concentration (IC50) is above 200 µM. As for `O=C1OCC(C(=O)c2cccc(O)c2)C1=O` (stereo unspecified), the result was inactive.

For the compound `C(=C\c1c[nH]c2ccccc12)/c1nccc2ccccc12`, the EC50 was 0.0631 µM and the half-inhibitory concentration (IC50) came out at 107 µM. The like results for `CCCCCc1cc(O)c2c3c(c(=O)oc2c1)CP(=O)(c1ccccc1)CC3` (stereo unspecified) were, in that order, above 25.1 µM and 19.1 µM. Regarding `COc1ccc(OC)c(NS(=O)(=O)c2ccc3nc(C)n(NS(=O)(=O)c4cc(OC)ccc4OC)c(=O)c3c2)c1`, the EC50 is above 200 µM and the concentration for half-maximal inhibition (IC50) came to 43.7 µM.

In the case of `COc1cccc(N=N/C(=N\NC(=O)c2cc(Br)ccc2O)c2ccc(N(CCC#N)CCC#N)cc2OC)c1`, the EC50 is above 100 µM and the half-maximal inhibitory concentration (IC50) turned out to be 13.5 µM. The like results for `CC(C)(C)[Si](C)(C)OC[C@H]1O[C@@H](n2ccc(=O)[nH]c2=O)[C@H](O[Si](C)(C)C(C)(C)C)[C@]1(O)[C@H](Cl)C(N)=O` were, in that order, above 200 µM and 3.72 µM.

As for `COCC(=O)OC1CCn2c1nc1c2C(=O)C(C)=C(NC(C)=O)C1=N` (stereo unspecified), the EC50 is above 200 µM and the IC50 was 2.88 µM. Consider `CCOC(=O)c1c(NC(=O)c2ccccc2)sc2c1CCCC2`, for which the EC50 is above 151 µM and the IC50 is above 151 µM. Turning to `CC1=NN(c2ccccc2)[As]2ON=C(c3ccc(Cl)cc3)C12` (stereo unspecified), the result was inactive. As for `O=C(NCCCl)N(O)C(=O)Nc1ccccc1`, the EC50 is above 200 µM and the IC50 came out at 126 µM. In the case of `N#CC1C(=O)C(=O)N(c2ccccc2)C1=O` (stereo unspecified), the EC50 is above 33.9 µM and the IC50 was above 33.9 µM.

Consider `CC1CN1c1c(C(=O)/C=C/c2ccc(F)cc2)c(-c2ccccc2)nn(C)c1=O` (stereo unspecified), for which the EC50 was above 120 µM and the IC50 was 11 µM.

`[N-]=[N+]=NC1(c2ccccc2)C(=O)C(Cl)=C(c2ccccc2)N(c2ccccc2)C1=O` (stereo unspecified): the EC50 is above 200 µM and the IC50 stood at 126 µM. For `CCOC(=O)C(O)(CC1=NC(C(=O)OC)(C(=O)OC)C(c2cccc(C=O)c2)O1)C(=O)OCC` (stereo unspecified), the EC50 was above 200 µM and the IC50 is above 200 µM. `O=C(/C=C/c1ccc(O)c(O)c1)O[C@H](C(=O)O)[C@H](OC(=O)/C=C/c1ccc(O)c(O)c1)C(=O)O`: the EC50 is above 85.1 µM and the IC50 amounted to 20 µM.

Consider `COCN1C(=O)[C@@H]2CCCN2C(=O)c2ccc(Cl)cc21`, for which the EC50 is above 200 µM and the IC50 is above 200 µM. For the compound `COC(=O)/C(C#N)=C\NC(=S)C(N)=S`, the EC50 is above 200 µM and the half-maximal inhibitory concentration (IC50) was found to be 11.2 µM. For `Cc1ccc(NC(=O)CC(=O)n2nc(-c3ccccc3)c(N=Nc3ccccc3C(=O)O)c2-c2ccccc2)cc1`, the EC50 is above 25.1 µM and the IC50 was above 25.1 µM.

`CCO/C=C(\C(=O)OC)S(=O)(=O)c1ccc(C)cc1`: the EC50 was above 200 µM and the IC50 was above 200 µM. For `COc1cc(C(O)C2C(=O)OCC2C2(c3ccc4c(c3)OCO4)SCCCS2)cc(OC)c1OC` (stereo unspecified), the EC50 was above 36.3 µM and the IC50 is above 36.3 µM. With `CC(=O)O[C@H]1CCC2[C@@H]3CCC4=C(O)C(=O)C(C#N)C[C@]4(C)C3CC[C@@]21C` (stereo partly specified), the outcome was inactive.

With `COC(=O)/C(=N/NC(N)=O)C(C(=O)OC)C(=O)C(=O)Nc1ccc(Cl)cc1` (stereo unspecified), the result was inactive. With `O=S(=O)(F)c1ccccc1C[P+](c1ccccc1)(c1ccccc1)c1ccccc1`, the EC50 is above 200 µM and the IC50 was 17.8 µM. In the case of `O=C1c2cn[nH]c2C(c2ccccc2)N1c1ccccc1` (stereo unspecified), the outcome was inactive. For `C=C(C)CCC1CCCCC(CN(C)C)C1=O` (stereo unspecified), the EC50 was above 200 µM and the half-inhibitory concentration (IC50) worked out at 110 µM. For `NC(CS)C(=O)NCCNCCNc1ccc(NCCNCCNC(=O)C(N)CS)c2c1C(=O)c1c(O)ccc(O)c1C2=O` (stereo unspecified), the EC50 was above 200 µM and the IC50 was 13.5 µM. `COC(=O)CNS(=O)(=O)c1ccc(-c2c3nc(c(-c4ccc(S(=O)(=O)NCC(=O)OC)cc4)c4ccc([nH]4)c(-c4ccc(S(=O)(=O)NCC(=O)OC)cc4)c4nc(c(-c5ccc(S(=O)(=O)NCC(=O)OC)cc5)c5ccc2[nH]5)C=C4)C=C3)cc1`: the EC50 was above 100 µM and the IC50 is above 100 µM. On to `Clc1cc2ncn(C3CCCCO3)c2cc1Cl` (stereo unspecified), for which the EC50 is above 200 µM and the half-maximal inhibitory concentration (IC50) is 45.7 µM.

With `CN(C)Cc1cc(C(=O)/C=C/c2c(F)cccc2Cl)cc(CN(C)C)c1O`, the EC50 was above 20 µM and the half-maximal inhibitory concentration (IC50) was 4.68 µM. As to `CCOC(=O)c1ccc(CS(=O)(=O)c2ccccc2C(=O)OCC)cc1`, the EC50 was above 95.5 µM and the IC50 was above 95.5 µM. On to `C=CC1(C)CCC2C(=CCC3C2(C)CC(O)C(O)C3(C)COC2OC(CO)C(O)C(O)C2O)C1` (stereo unspecified), for which the EC50 is above 200 µM and the IC50 was 39.8 µM. `CC(C)(C)C1=CP(=O)(c2ccccc2)C=C(C(C)(C)C)N1`: the EC50 was above 200 µM and the half-inhibitory concentration (IC50) was above 200 µM. Consider `O=CC(O)C(O)C(O)C1CNC(=S)O1` (stereo unspecified), for which the EC50 is above 200 µM and the half-inhibitory concentration (IC50) is above 200 µM. As for `c1ccc2cc(CNCCCCNCCCNCc3ccc4ccccc4c3)ccc2c1`, the EC50 was above 200 µM and the IC50 came out at 0.257 µM. The like results for `Cc1nc2c(Cl)cc(Cl)cc2c(Cl)c1CCCl` were, in that order, above 200 µM and above 200 µM.

With `OC1OC(c2ccco2)C(F)(F)C(F)(F)C1(F)F` (stereo unspecified), the EC50 is above 200 µM and the half-inhibitory concentration (IC50) was determined as 102 µM. On to `CCOC(=O)C(Cc1ccc([N+](=O)[O-])cc1)NC(=O)CC1c2ccccc2-c2ccccc21` (stereo unspecified), for which the EC50 was above 11.7 µM and the half-maximal inhibitory concentration (IC50) was above 11.7 µM. Turning to `O=C1CC(c2c(-c3ccccc3)[nH]c3ccccc23)C(=O)N1c1ccccc1` (stereo unspecified), the result was inactive.

As to `CN1C(=O)C2(C#N)C3(CCCC3)C2(C#N)C1=O` (stereo unspecified), the EC50 was above 43.7 µM and the IC50 is above 43.7 µM.

For `CCCn1c(SCC)c2cc3cc4ccccc4cc3cc2c1-c1nc(F)nc(F)n1`, the EC50 is above 30.9 µM and the half-inhibitory concentration (IC50) turned out to be 22.4 µM.
